The values that follow come from patent US9072703B2 (Ipsen Pharma S.A.S., priority 2008, dated 2015).

Non-standard residues stand in square brackets, D forms with d. No end group written: not given here. *: point of attachment. Myristoyl = CCCCCCCCCCCCCC(=O)*; 12Ado = NCCCCCCCCCCCC(=O)O; Ac6c = NC1(C(=O)O)CCCCC1; Nle = CCCC[C@H](N)C(=O)O; Orn = NCCC[C@H](N)C(=O)O; Ac5c = NC1(C(=O)O)CCCC1; Aib = CC(C)(N)C(=O)O

Data set [1] can be described thus: Rat plasma half-life assay. The data set is classed as in vitro ADME. The following applies: 37° C., LC-MS, read-out: Rat Plasma T½ (converted). The method, then:
(§1) B. Human and Rat Plasma Half-Life Assay
(§2) 50 μL was removed at various times, like at 0, 1, 2, 3, 4, 8, 24, 32, 48, 56, 72 hours, mixed with 5 μL formic acid and 150 μL acetonitrile in a microcentrifuge tube, vertexed, and centrifuged for 10 minutes at 10K rpm. The supernatant was transferred to an injection vial and analyzed by LC-MS. The LC-MS system consisted of an API4000 mass spectrometer with an ESI probe. Positive ion mode and full scan detection were used. HPLC separation was carried out on a Luna 3μ C8 (2), 2×30 mm column with a gradient from 90% A to 90% B in 10 minutes at a flow rate of 0.3 ml/min. Buffer A was 1% formic acid in water and buffer B was 1% formic acid acetonitrile.

The nature of data set [2]: Human plasma half-life assay. In kind it is in vitro ADME. The following applies: 37° C., LC-MS, read-out: Human Plasma T½ (converted). Here is the method:
as §1, §2

Regarding `CCCCCCCCCCCC(=O)NCCCC[C@H](NC(=O)[C@H](CCC(N)=O)NC(=O)[C@@H](NC(=O)[C@@H](NC(=O)[C@H](CC(N)=O)NC(=O)[C@H](Cc1c[nH]cn1)NC(=O)[C@H](CCCCN)NC(=O)[C@H](Cc1c[nH]c2ccccc12)NC(=O)[C@H](CC(=O)O)NC(=O)[C@H](CC(N)=O)NC(=O)[C@H](CCCCN)NC(=O)[C@H](CCCCN)NC(=O)CNC(=O)[C@H](CCCCN)NC(=O)[C@H](CCC(N)=O)NC(=O)[C@H](C)NC(=O)[C@H](CC(C)C)NC(=O)[C@H](CC(C)C)NC(=O)[C@H](Cc1c[nH]c2ccccc12)NC(=O)[C@H](CC(N)=O)NC(=O)[C@@H](NC(=O)[C@H](Cc1ccccc1)NC(=O)[C@H](CC(=O)O)NC(=O)[C@H](CCC(N)=O)NC(=O)[C@H](CCC(N)=O)NC(=O)[C@H](Cc1c[nH]cn1)NC(=O)[C@@H](NC(=O)[C@H](CCCCN)NC(=O)[C@H](CC(=O)O)NC(=O)[C@H](CCSC)NC(=O)[C@H](C)NC(=O)[C@@H](NC(=O)C1(NC(=O)[C@H](Cc2ccc(O)cc2)NC(=O)[C@H](CC(=O)O)NC(=O)[C@H](CO)NC(=O)[C@@H](NC(=O)[C@H](Cc2ccccc2)NC(=O)[C@@H](NC(=O)CNC(=O)[C@H](CCC(=O)O)NC(=O)[C@H](C)NC(=O)[C@@H](N)Cc2ccc(O)cc2)[C@@H](C)O)[C@@H](C)CC)CCCC1)[C@@H](C)CC)[C@@H](C)CC)C(C)C)[C@@H](C)CC)[C@@H](C)O)C(=O)O` [Example 36, [A5c^11, Lys^43(N—C(O)—(CH2)10—CH3)]hGIP(1-43)-OH], the half-life at 0.1 mg/ml in data set [1] is 53.3 h; in data set [2], 14.8 h.

On to `CCCCCCCCCCCCCCCC(=O)NCCCC[C@H](NC(=O)[C@H](CCC(N)=O)NC(=O)[C@@H](NC(=O)[C@@H](NC(=O)[C@H](CC(N)=O)NC(=O)[C@H](Cc1c[nH]cn1)NC(=O)[C@H](CCCCN)NC(=O)[C@H](Cc1c[nH]c2ccccc12)NC(=O)[C@H](CC(=O)O)NC(=O)[C@H](CC(N)=O)NC(=O)[C@H](CCCCN)NC(=O)[C@H](CCCCN)NC(=O)CNC(=O)[C@H](CCCCN)NC(=O)[C@H](CCC(N)=O)NC(=O)[C@H](C)NC(=O)[C@H](CC(C)C)NC(=O)[C@H](CC(C)C)NC(=O)[C@H](Cc1c[nH]c2ccccc12)NC(=O)[C@H](CC(N)=O)NC(=O)[C@@H](NC(=O)[C@H](Cc1ccccc1)NC(=O)[C@H](CC(=O)O)NC(=O)[C@H](CCC(N)=O)NC(=O)[C@H](CCC(N)=O)NC(=O)[C@H](Cc1c[nH]cn1)NC(=O)[C@@H](NC(=O)[C@H](CCCCN)NC(=O)[C@H](CC(=O)O)NC(=O)[C@H](CCSC)NC(=O)[C@H](C)NC(=O)[C@@H](NC(=O)C1(NC(=O)[C@H](Cc2ccc(O)cc2)NC(=O)[C@H](CC(=O)O)NC(=O)[C@H](CO)NC(=O)[C@@H](NC(=O)[C@H](Cc2ccccc2)NC(=O)[C@@H](NC(=O)CNC(=O)[C@H](CCC(=O)O)NC(=O)[C@H](C)NC(=O)[C@@H](N)Cc2ccc(O)cc2)[C@@H](C)O)[C@@H](C)CC)CCCC1)[C@@H](C)CC)[C@@H](C)CC)C(C)C)[C@@H](C)CC)[C@@H](C)O)C(=O)O` [Example 40, [A5c^11, Lys^43(N—C(O)—(CH2)14—CH3)]hGIP(1-43)-OH], for which the half-life at 0.1 mg/ml was 19.3 h in data set [1] and 17.2 h in data set [2].

Turning to `CCCCCCCCCCCCCCCC(=O)NCCC[C@H](NC(=O)CNC(=O)[C@H](CCCCN)NC(=O)[C@H](CCC(N)=O)NC(=O)[C@H](C)NC(=O)[C@H](CC(C)C)NC(=O)[C@H](CC(C)C)NC(=O)[C@H](Cc1c[nH]c2ccccc12)NC(=O)[C@H](CC(N)=O)NC(=O)[C@@H](NC(=O)[C@H](Cc1ccccc1)NC(=O)[C@H](CC(=O)O)NC(=O)[C@H](CCC(N)=O)NC(=O)[C@H](CCC(N)=O)NC(=O)[C@H](Cc1c[nH]cn1)NC(=O)[C@@H](NC(=O)[C@H](CCCCN)NC(=O)[C@H](CC(=O)O)NC(=O)[C@H](CCSC)NC(=O)[C@H](C)NC(=O)[C@@H](NC(=O)C1(NC(=O)[C@H](Cc2ccc(O)cc2)NC(=O)[C@H](CC(=O)O)NC(=O)[C@H](CO)NC(=O)[C@@H](NC(=O)[C@H](Cc2ccccc2)NC(=O)[C@@H](NC(=O)CNC(=O)[C@H](CCC(=O)O)NC(=O)[C@H](C)NC(=O)[C@@H](N)Cc2ccc(O)cc2)[C@@H](C)O)[C@@H](C)CC)CCCC1)[C@@H](C)CC)[C@@H](C)CC)C(C)C)C(=O)N[C@@H](CCCCN)C(=O)N[C@@H](CC(N)=O)C(=O)N[C@@H](CC(=O)O)C(=O)N[C@@H](Cc1c[nH]c2ccccc12)C(=O)N[C@@H](CCCCN)C(=O)N[C@@H](Cc1c[nH]cn1)C(=O)N[C@@H](CC(N)=O)C(=O)N[C@H](C(=O)N[C@H](C(=O)N[C@@H](CCC(N)=O)C(=O)N[C@@H](Cc1c[nH]cn1)C(=O)O)[C@@H](C)O)[C@@H](C)CC` [Example 41, [A5c^11, Orn^32(N—C(O)—(CH2)14—CH3), His^43]hGIP(1-43)-OH], the half-life at 0.1 mg/ml was 22.9 h in data set [1] and 6.6 h in data set [2].

For the compound `CCCCCCCCCCCCCCCC(=O)NCCC[C@H](NC(=O)[C@H](CCCCN)NC(=O)CNC(=O)[C@H](CCCCN)NC(=O)[C@H](CCC(N)=O)NC(=O)[C@H](C)NC(=O)[C@H](CC(C)C)NC(=O)[C@H](CC(C)C)NC(=O)[C@H](Cc1c[nH]c2ccccc12)NC(=O)[C@H](CC(N)=O)NC(=O)[C@@H](NC(=O)[C@H](Cc1ccccc1)NC(=O)[C@H](CC(=O)O)NC(=O)[C@H](CCC(N)=O)NC(=O)[C@H](CCC(N)=O)NC(=O)[C@H](Cc1c[nH]cn1)NC(=O)[C@@H](NC(=O)[C@H](CCCCN)NC(=O)[C@H](CC(=O)O)NC(=O)[C@H](CCSC)NC(=O)[C@H](C)NC(=O)[C@@H](NC(=O)C1(NC(=O)[C@H](Cc2ccc(O)cc2)NC(=O)[C@H](CC(=O)O)NC(=O)[C@H](CO)NC(=O)[C@@H](NC(=O)[C@H](Cc2ccccc2)NC(=O)[C@@H](NC(=O)CNC(=O)[C@H](CCC(=O)O)NC(=O)[C@H](C)NC(=O)[C@@H](N)Cc2ccc(O)cc2)[C@@H](C)O)[C@@H](C)CC)CCCC1)[C@@H](C)CC)[C@@H](C)CC)C(C)C)C(=O)N[C@@H](CC(N)=O)C(=O)N[C@@H](CC(=O)O)C(=O)N[C@@H](Cc1c[nH]c2ccccc12)C(=O)N[C@@H](CCCCN)C(=O)N[C@@H](Cc1c[nH]cn1)C(=O)N[C@@H](CC(N)=O)C(=O)N[C@H](C(=O)N[C@H](C(=O)N[C@@H](CCC(N)=O)C(=O)N[C@@H](Cc1c[nH]cn1)C(=O)O)[C@@H](C)O)[C@@H](C)CC` [Example 42, [A5c^11, Orn^33(N—C(O)—(CH2)14—CH3), His^43]hGIP(1-43)-OH], the half-life at 0.1 mg/ml in data set [1] was 28.3 h; in data set [2], 6.3 h.

“H-YAEGTF[Ac6c]SDYSIAMDKIHQQDFVNWLLAQKGKKN[Orn](Myristoyl)WKHNITQ-OH [Example 18, [A6c^7, Orn^35(N—C(O)—(CH2)12—CH3)]hGIP(1-42)-OH]”: the half-life at 0.1 mg/ml is 16.7 h in data set [1] and 7.3 h in data set [2].

For the compound “YAEGTFISDYSI[Aib]MDKIHQQDFVNWLLAQKGKKNDWKHNITQW-OH [Example 12, (Aib^13, Trp^43)hGIP(1-43)-OH]”, the half-life at 0.1 mg/ml in data set [1] is 2.1 h; in data set [2], 6.9 h.

For the compound “YAEGTFISDYSI[Aib][Nle]DKIHQQDFVNWLLAQKGKKNDWKHNITQF-OH [Example 9, (Aib^13, Nle^14, Phe^43)hGIP(1-43)-OH]”, the half-life at 0.1 mg/ml in data set [1] is 1.3 h; in data set [2], 6.9 h.

Consider “YAEGTFISDY[Ac5c]IAMDKIHQQDFVNWLLAQKGCKNDWKHNI[Ac5c]Q-NH2 [Example 31, (A5c^11, 41, Cys^32)hGIP(1-42)-NH2]”, for which the half-life at 0.1 mg/ml in data set [1] was 16.3 h; in data set [2] it was 26.6 h.

For “YAEGTFISDY[Ac5c]IAMDKIHQQDFVNWLLAQKGKKNDWKHNITQA-OH [Example 8, (A5c^11, Ala^43)hGIP(1-43)-OH]”, the results for the half-life at 0.1 mg/ml in data set [1] and in data set [2] were 2.3 h and 7.4 h, respectively.

As to “YAEGTFISDY[Ac5c]IAMDKIHQQDFVNWLLAQKGKKNDWKHNITQT-OH [Example 10, (A5c^11, Thr^43)hGIP(1-43)-OH]”, the half-life at 0.1 mg/ml was 2.1 h in data set [1] and 7.9 h in data set [2].

For “YAEGTFISDY[Ac5c]IAMDKIHQQDFVNWLLAQKGKKNDWKHNITQ[12Ado]-OH [Example 13, (A5c^11, Ado^43)hGIP(1-43)-OH]”, the figures for the half-life at 0.1 mg/ml in data set [1] and in data set [2] were 18.8 h and 13.1 h, respectively.

As for “YAEGTFISDY[Ac5c]IAMDKIHQQDFVNWLLAQKGKKNDWKHNI[Ac5c]QC-NH2 [Example 33, (A5c^11, 41, Cys^43)hGIP(1-43)-NH2]”, the half-life at 0.1 mg/ml in data set [1] is 6.5 h; in data set [2], 15.8 h.

Take “YAEGTFISDY[Ac6c]IA[Ac6c]DKIHQQDFVNWLLAQKGKKNDWKHNI[Ac6c]Q-OH [Example 11, (A6c^11, 14, 41)hGIP(1-42)-OH]”: the half-life at 0.1 mg/ml in data set [1] is 8.6 h; in data set [2] it was 13.1 h.

Turning to “YAEGTFISDY[Ac6c]IA[Ac6c]DKIHQQDFVNWLLAQKGKKNDWKHN[Ac6c]TQ-OH [Example 14, (A6c^11, 14, 40)hGIP(1-42)-OH]”, the half-life at 0.1 mg/ml in data set [1] is 4.8 h; in data set [2], 11.6 h.

As for “YAEGTF[Ac6c]SDYSIAMDKIHQQDFVNWLLAQKGKKNDWKHNI[Ac6c]Q-OH [Example 16, (A6c^7, 41)hGIP(1-42)-OH]”, the half-life at 0.1 mg/ml is 1.3 h in data set [1] and 6.5 h in data set [2].

For the compound “YAEGTF[Ac6c]SDYSIA[Nle]DKIHQQDFVNWLLAQKGKKNDWKHNI[Ac6c]Q-OH [Example 17, (A6c^7, 41, Nle^14)hGIP(1-42)-OH]”, the half-life at 0.1 mg/ml is 1.9 h in data set [1] and 6.3 h in data set [2].
